{
  "source": "patent US8816095B2",
  "about": "“Na channels, disease, and related assays and compositions” (Georgetown University, priority 2008, dated 2014)",
  "key": {"[1]": {"biological_target": "T1, human Nav1.2 (Homo sapiens, UniProt Q99250)", "T1 construct": "host or cells: HEK", "T1 sequence (Q99250 whole entry)": "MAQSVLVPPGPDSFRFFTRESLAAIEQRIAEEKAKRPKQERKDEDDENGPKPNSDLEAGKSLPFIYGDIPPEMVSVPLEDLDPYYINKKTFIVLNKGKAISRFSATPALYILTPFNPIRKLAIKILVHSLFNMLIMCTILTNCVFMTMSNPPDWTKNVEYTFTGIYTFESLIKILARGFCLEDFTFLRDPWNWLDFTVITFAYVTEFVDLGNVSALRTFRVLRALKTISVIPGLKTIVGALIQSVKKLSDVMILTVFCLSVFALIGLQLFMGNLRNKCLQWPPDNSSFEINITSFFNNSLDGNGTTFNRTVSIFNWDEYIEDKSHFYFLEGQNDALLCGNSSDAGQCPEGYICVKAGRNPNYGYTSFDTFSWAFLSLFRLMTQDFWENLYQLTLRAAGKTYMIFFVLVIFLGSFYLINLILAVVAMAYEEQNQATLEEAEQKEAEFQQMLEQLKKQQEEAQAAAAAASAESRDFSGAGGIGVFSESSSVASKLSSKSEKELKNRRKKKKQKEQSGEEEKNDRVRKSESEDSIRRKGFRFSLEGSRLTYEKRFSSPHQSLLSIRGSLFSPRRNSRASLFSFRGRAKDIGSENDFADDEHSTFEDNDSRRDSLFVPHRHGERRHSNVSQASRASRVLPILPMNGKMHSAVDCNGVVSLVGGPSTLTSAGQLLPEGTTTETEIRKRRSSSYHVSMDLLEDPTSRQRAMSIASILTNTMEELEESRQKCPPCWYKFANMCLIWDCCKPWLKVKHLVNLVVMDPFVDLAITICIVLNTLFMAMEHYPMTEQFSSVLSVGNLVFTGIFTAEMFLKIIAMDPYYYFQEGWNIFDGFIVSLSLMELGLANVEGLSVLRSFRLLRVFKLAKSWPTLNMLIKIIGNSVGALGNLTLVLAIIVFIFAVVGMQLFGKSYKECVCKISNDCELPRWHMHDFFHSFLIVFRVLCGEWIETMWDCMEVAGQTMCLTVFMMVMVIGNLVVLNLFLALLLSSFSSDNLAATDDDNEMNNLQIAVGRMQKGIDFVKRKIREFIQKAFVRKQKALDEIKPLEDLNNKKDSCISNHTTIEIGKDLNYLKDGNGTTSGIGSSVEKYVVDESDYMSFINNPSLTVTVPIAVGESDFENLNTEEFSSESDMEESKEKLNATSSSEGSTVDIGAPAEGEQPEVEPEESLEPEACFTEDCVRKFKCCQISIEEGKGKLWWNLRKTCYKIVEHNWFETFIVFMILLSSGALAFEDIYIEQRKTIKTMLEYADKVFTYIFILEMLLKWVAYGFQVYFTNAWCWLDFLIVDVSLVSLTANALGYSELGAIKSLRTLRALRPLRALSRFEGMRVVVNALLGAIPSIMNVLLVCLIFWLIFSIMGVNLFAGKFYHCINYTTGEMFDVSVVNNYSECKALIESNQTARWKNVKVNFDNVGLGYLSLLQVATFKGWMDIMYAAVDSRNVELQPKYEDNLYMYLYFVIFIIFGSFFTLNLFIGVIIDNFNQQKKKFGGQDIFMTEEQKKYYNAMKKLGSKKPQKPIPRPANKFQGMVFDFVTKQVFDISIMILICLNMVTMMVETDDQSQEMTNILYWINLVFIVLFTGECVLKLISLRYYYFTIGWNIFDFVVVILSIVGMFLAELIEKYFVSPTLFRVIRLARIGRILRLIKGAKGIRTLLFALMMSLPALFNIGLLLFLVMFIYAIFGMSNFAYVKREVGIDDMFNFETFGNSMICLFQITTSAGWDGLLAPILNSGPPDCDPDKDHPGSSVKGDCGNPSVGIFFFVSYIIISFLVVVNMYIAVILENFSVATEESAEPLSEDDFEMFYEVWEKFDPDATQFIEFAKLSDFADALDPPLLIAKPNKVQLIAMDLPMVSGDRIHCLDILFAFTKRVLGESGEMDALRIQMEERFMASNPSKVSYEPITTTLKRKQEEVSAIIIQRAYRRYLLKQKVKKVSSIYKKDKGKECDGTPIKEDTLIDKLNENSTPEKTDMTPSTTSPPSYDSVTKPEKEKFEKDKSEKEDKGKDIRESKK", "assay": "hNav1.2 functional block, whole-cell patch clamp", "type": "cell-based", "experimental": "Of the 20 analogs tested, six had [^3H]-BTX displacement characteristics much greater then that of phenyloin (Table 7), see Schemes 5, 6, 7 and 8 for the chemical synthesis and structure of the tested compounds. Compound 26, having the greatest [^3H]-BTX displacement at 86% ([…]), was further tested for VGSC functional blocking ability in HEK cells stably expressing Nav1.2 (Table 8).\nIn addition the functional blocking ability of 9 was tested after site two affinities was confirmed. The potential reason for this increased blocking ability stems from the dansyl addition in a hydrophobically receptive region of the binding site in the VGSC (Anderson, J. D., et al. Mol. Cancer. Ther. 2003, 2, 1149-1154; Lenkowski, P et al. Neuropharmacology, 2007, 52, 1044-1054). This enhanced potency could be due to the dansyl substituent interacting with L1465 and 11469, located in S6 of domain III in the binding site, which are believed to be the source of hydrophobic receptivity 17. The ability to inhibit VGSC currents is an important property and represents functional blocking. The ability of CDPNS to inhibit sodium channel currents was assessed at 10 and 100 μM against human Nav1.2 by patch clamp assay (FIG. 10).\nHuman embryonic kidney cells (HEK) cells stably expressing human Nav1.2 were a kind gift from Dr. H. A. Hartmann (University of Baltimore, Md., USA) and were grown in DMEM/F12 media (Invitrogen, Corp, CA, USA) supplemented with 10% fetal bovine serum, penicillin (100 U/ml), streptomycin (100 μg/ml) and G418 (500 μg/ml; Sigma, Mo., USA). Cells were grown in a humidified atmosphere of 5% CO2 and 95% air at 37° C.\nSodium currents were recorded using the whole-cell configuration of the patch clamp recording technique with an Axopatch 200 amplifier (Axon Instruments, Foster City, Calif.). All voltage protocols were applied using pCLAMP 9 software (Axon, USA) and a Digidata 1322A (Axon, USA). Currents were amplified and low pass filtered (2 kHz) and sampled at 33 kHz. Borosilicate glass pipettes were pulled using a Brown-Flaming puller (model P87, Sutter Instruments Co, Novato, Calif.) and heat polished to produce electrode resistances of 0.5-1.5 MΩ when filled with the following electrode solution (in mM); CsCl 130, MgCl2 1, MgATP 5, BAPTA 10, HEPES 5 (pH adjusted to 7.4 with CsOH). Cells were plated on glass coverslips and superfused with solution containing the following composition; (in mM) NaCl 130, KCl 4, CaCl2 1, MgCl2 5, HEPES 5, and glucose 5 (pH adjusted to 7.4 with NaOH).\nCompound 26 was prepared as 100 mM stock solutions in dimethyl sulfoxide (DMSO) and diluted to desired concentration in perfusion solution. The maximum DMSO concentration used was 0.1% and had no effect on current amplitude. All experiments were performed at room temperature (20-22° C.). After establishing whole-cell, a minimum series resistance compensation of 75% was applied. Sodium currents were elicited by a depolarizing step from a holding potential of −100 mV to +10 mV for a duration of 25 ms at 15 s intervals. Compound 26 was applied after a 3 min control period and continued until a steady state current amplitude was observed. All data represent percentage mean block±standard error of the mean (S.E.M.)."}, "[2]": {"biological_target": "T2, hERG potassium channels (Homo sapiens, UniProt Q12809)", "T2 construct": "expressed in transfected cells; host or cells: HEK-293 (membranes)", "T2 sequence (Q12809 whole entry)": "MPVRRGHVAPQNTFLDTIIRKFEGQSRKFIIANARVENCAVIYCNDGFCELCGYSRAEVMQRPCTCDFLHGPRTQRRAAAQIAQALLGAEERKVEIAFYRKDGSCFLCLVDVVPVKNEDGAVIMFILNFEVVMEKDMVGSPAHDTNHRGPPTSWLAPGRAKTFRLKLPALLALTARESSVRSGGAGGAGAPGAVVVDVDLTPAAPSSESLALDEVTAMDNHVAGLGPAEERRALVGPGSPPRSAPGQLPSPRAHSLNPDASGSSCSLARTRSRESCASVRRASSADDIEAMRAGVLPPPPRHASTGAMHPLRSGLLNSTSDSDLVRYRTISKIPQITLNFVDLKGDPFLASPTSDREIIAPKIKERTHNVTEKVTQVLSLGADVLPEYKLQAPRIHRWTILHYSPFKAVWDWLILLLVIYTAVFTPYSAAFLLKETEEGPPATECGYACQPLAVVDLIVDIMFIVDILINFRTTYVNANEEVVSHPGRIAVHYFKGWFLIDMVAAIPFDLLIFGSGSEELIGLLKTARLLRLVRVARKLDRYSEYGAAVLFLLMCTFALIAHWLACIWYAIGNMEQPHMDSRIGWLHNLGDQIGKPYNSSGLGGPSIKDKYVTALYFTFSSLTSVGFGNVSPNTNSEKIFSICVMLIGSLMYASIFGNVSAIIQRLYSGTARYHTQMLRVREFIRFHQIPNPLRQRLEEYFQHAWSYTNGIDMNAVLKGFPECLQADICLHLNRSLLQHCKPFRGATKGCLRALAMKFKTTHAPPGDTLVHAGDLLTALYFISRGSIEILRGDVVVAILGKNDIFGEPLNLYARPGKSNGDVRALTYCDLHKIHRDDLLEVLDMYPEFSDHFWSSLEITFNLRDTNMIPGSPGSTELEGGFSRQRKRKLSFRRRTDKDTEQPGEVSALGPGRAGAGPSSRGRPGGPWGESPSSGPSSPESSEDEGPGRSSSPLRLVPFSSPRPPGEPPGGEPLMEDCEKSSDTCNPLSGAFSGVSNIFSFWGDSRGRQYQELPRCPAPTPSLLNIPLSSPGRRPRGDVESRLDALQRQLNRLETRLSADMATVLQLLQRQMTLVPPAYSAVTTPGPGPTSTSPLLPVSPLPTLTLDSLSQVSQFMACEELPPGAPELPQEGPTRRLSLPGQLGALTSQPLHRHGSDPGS", "assay": "hERG binding assay ([35S]MK-499 displacement)", "conditions": "[35S]MK-499, HEK-293 hERG membranes", "source_text": "All four compounds were also counter-screened for human ether-a-go-go-related gene (hERG) activity against the radio-ligand MK-0499. Blockade of hERG K^+ channels is widely regarded as the predominant cause of drug-induced QT prolongation. (Aronov, A J Med Chem. 2006 Nov. 16; 49(23):6917-21).\nMK-499, a potent hERG blocker, was used in a ligand binding assay to evaluate the binding of test compounds to hERG potassium channels as previously described (Wang, J et al. Am J Physiol Heart Circ Physiol, 2003, 284: H256-H267).^2 Test compounds were incubated with 0.05 nM of radiolabeled MK-499 ([35S]MK-499; specific Activity=1,279,010 μCi/μmol) in an assay buffer solution (70 mM NaCl, 60 mM KCl, 10 mM HEPES/NaOH (pH 7.4), 2 mM MgCl2, 1 mM CaCl2) also containing membranes isolated from HEK-293 cells stably expressing hERG channels in 96 well polypropylene deep-well assay plates at room temperature (25° C.) for >90 min. Assay plates were rinsed three time with buffer (130 mM NaCl, 10 mM HEPES/NaOH (pH 7.4), 2 mM MgCl2, 1 mM CaCl2) and the solution transferred to a Packard FilterMate Universal Harvester apparatus and filtered using PerkinElmer UniFilter-96 GF/C 96-well white microplates pre-soaked with 0.3% BSA (10 mL/L of 30% BSA). Plates were dried overnight at 37° C., or for 2 hrs at 56° C. The bottom of the plates were sealed and 0.025 mL of Microscint 0 was added to each well. The plates were top sealed and counted for 2 min/well in a Packard TopCount Scintillation counter. Test compounds were evaluated in a five point titration format using half-log steps from 0.3 μM to 30 μM. […] Less than 5% of the added radioactivity was retained on the filters. Assays were performed in triplicate."}},
  "data": [
    {"smiles": "O=C1NC(=O)C(c2ccccc2)(c2ccccc2)N1", "note": "[DPH, Diphenylhydantoin, reference compound]", "values": [
      {"measurement": "% hNaV 1.2 Functional Block (10 μM)", "setting": "[1]; Table 8", "result": "10.9 ± 4.2", "unit": "%"},
      {"measurement": "% hNaV 1.2 Functional Block (10 μM)", "setting": "[1]; Table 9", "result": "10.9 ± 4.2", "unit": "%"},
      {"measurement": "% Nav 1.2 Functional Block (10 μm)", "setting": "[1]; 10 μm, Table 13", "result": "10.9 ± 4.2", "unit": "%"},
      {"measurement": "% inhibition for hERG assay, 0.3 μM", "setting": "[2]; 0.3 μM", "result": 9, "unit": "%"},
      {"measurement": "% inhibition for hERG assay, 1 μM", "setting": "[2]; 1 μM", "result": 20, "unit": "%"},
      {"measurement": "% inhibition for hERG assay, 3 μM", "setting": "[2]; 3 μM", "result": 28, "unit": "%"},
      {"measurement": "% inhibition for hERG assay, 10 μM", "setting": "[2]; 10 μM", "result": 17, "unit": "%"},
      {"measurement": "% inhibition for hERG assay, 30 μM", "setting": "[2]; 30 μM", "result": 40, "unit": "%"}
    ]}
  ]
}
